From patent publication US12702307B2, “Non-invasive stress imaging methods of diagnosing peripheral arterial disease via dynamic pet” (Jubilant DraxImage inc., priority 2021, dated 2026)

How the values were obtained:
[1] = test system: occluded tissue / low limb; assay: Dynamic Rb-82 PET, tracer flux K1 in lower extremity, human study; type: in vivo; conditions: for average K1 value: diabetic subject, 3D region of interest on the low limb, parametric imaging
Method: CT scan was performed on the subject for standard attenuation correction, multi-energy low dose contrast CT imaging was performed to define lower extremity vasculature and attenuation correction was performed using virtual non-contrast images; 518±37 MBq Rb-82 is administered to the subject using automated generation and infusion system agent; single bed PET acquisition of the heart for about 2-7 minutes is performed; single bed centered PET acquisition at abdominal aorta of the subject for about 1-3 minutes is performed; continuous bed motion PET scan of the subject between abdominal aorta and legs is performed; input function was calculated from abdominal artery; Tracer flux (K1) into the tissue or region of interest is calculated as volume per unit time per unit volume of tissue. […] FIG. 5 represents the image acquisition protocol during human study. FIG. 7 represents the muscle volumes in human studies.

[2] = test system: occluded tissue (lower extremity); assay: Dynamic Rb-82 PET, tracer flux K1 in lower extremity, animal study; type: in vivo, porcine pigs; conditions: occluded tissue in comparison to non-occluded tissue; 518±37 MBq Rb-82
Method: CT scan was performed on the subject for standard attenuation correction, and multi-energy low dose contrast CT imaging was performed to define the lower extremity vasculature and attenuation correction was performed using virtual non-contrast images; 518±37 MBq Rb-82 was administered to the subject using automated generation and infusion system; single bed PET acquisition of the heart for about 1-10 minutes, was performed; single bed PET acquisition of the leg for about 1-10 minutes was performed; single bed centered PET acquisition at abdominal aorta of the subject for about 1-3 minutes was performed; continuous bed motion PET scan of the subject between abdominal aorta and legs was performed; tracer flux (K1) into the tissue or region of interest is calculated as volume per unit time per unit volume of tissue. […] It was validated by injecting microspheres over 30 seconds during the PET imaging at either rest or stress conditions for each animal and blood flow was measured in both gastrocnemius and soleus muscles. FIG. 4 represents the sample animal K1 parametric image with AA as the input function. FIG. 6 represents the muscle volumes in animal studies.

[3] = test system: calf muscles, hindlimb ischemia (HLI); assay: Rb-82 PET/CT of calf muscles in rabbit hindlimb ischemia at rest and cuff-induced hyperemia; type: in vivo, rabbits; conditions: for SMP SUV: cuff-induced hyperemia (CIH); for Mean Rb-82 SUV: rest, 1.5 mCi
Method: Methods: Hindlimb ischemia (HLI) was created in rabbits (n=8) by right femoral ligations and Rb-82 PET/CT imaging performed on digital PET scanner (Vision600, Siemens) at either 2 or 4 weeks post-ligation. Rabbits were injected with Rb-82 (1.5 mCi) with constant activity infusion over 30 seconds at rest and 30 seconds following hyperemia induced by 3 minutes cuff occlusion of thighs bilaterally. PET images were acquired with shuttling scanner from heart to feet using 8 passes over 7 minutes. Summed images were created excluding the first 90 seconds post injection. Calf muscles were segmented based on CT images. Mean Rb-82 standardized uptake values (SUVs) were calculated for calf muscles—gastrocnemius (GC), plantaris (PLA), soleus (SOL), tibialis anterior (TA), extensor digitorum longus (EDL), peroneus (PER)—for both ischemic (I) and non-ischemic (NI) limbs. CT angiography was performed, and tissues analyzed for fiber type and capillary density.

calf muscles = assay: Rb PET/CT calf muscle perfusion at rest and reactive hyperemia in controls and PAD patients; type: in vivo, human
Method: Methods: Rb PET/CT imaging (Vision600, Siemens) was performed in healthy controls (n=6) and PAD patients (n=6). Rb (20-30 mCi) was delivered using a constant activity infusion over […], with PET images acquired by shuttling scanner from either heart (Protocol 1) or abdomen (Protocol 2) to feet using 8-11 passes over 7 minutes. Abdominal protocol was repeated 30 seconds after RH induced by 5 minutes bilateral thigh cuff occlusion. Mean Rb standardized uptake values (SUV), excluding the input function, were determined for calf muscles segmented in both legs using hybrid CT images including: gastrocnemius (GC), soleus (SOL), tibialis anterior (TA), extensor digitorum longus (EDL), and peroneus (PER) (FIG. 10A).

Compound | average K1 value [1] | Average K1 (tracer flux) [2] | SMP SUV ([3]; ischemic (I) limb) | SMP SUV ([3]; non-ischemic (NI) limb) | Mean Rb-82 SUV ([3]; ischemic (I) limb across calf muscles) | Mean Rb-82 SUV ([3]; non-ischemic (NI) limb across calf muscles) | Average K1 (tracer flux) ([1]; occluded tissue in comparison to non-occluded tissue, 518±37 MBq Rb-82) | Mean Rb SUV (calf muscles; reactive hyperemia (RH), PAD patients, gastrocnemius (GC)) | Mean Rb SUV (calf muscles; reactive hyperemia (RH), PAD patients, soleus (SOL)) | Mean Rb SUV (calf muscles; reactive hyperemia (RH), controls, gastrocnemius (GC)) | Mean Rb SUV (calf muscles; reactive hyperemia (RH), controls, soleus (SOL)) | Mean Rb SUV (calf muscles; rest, PAD subjects, gastrocnemius (GC)) | Mean Rb SUV (calf muscles; rest, PAD subjects, soleus (SOL)) | Mean Rb SUV (calf muscles; rest, controls, gastrocnemius (GC)) | Mean Rb SUV (calf muscles; rest, controls, soleus (SOL))
[15OH2] [^15O-water] | 0.039 | – | – | – | – | – | – | – | – | – | – | – | – | – | –
Rb-82 chloride | 0.032 | less than 0.05 ml/min/cm^3 | 1.02±0.32 | 1.14±0.34 | 0.55±0.18 | 0.51±0.16 | less than 0.05 ml/min/cm^3 | 0.96±0.58 | 1.08±0.76 | 0.38±0.18 | 0.34±0.14 | 0.50±0.11 | 0.66±0.20 | 0.44±0.11 | 0.52±0.12
